8 compounds from patent US8658636B2, “TRPV4 antagonists” (GlaxoSmithKline, LLC, priority 2010, dated 2014) can be followed below.

In the test the target is T1, human TRPV4 (Homo sapiens, UniProt Q9HBA0).
T1 construct: expressed in transfected cells; host or cells: HEK-293-MSR-II cells transduced with 1% BacMam virus
Briefly: Ligand-gated assay (FLIPR calcium, Fluo4). It is filed as cell-based. As to conditions: HEK-293-MSR-II cells transduced with BacMam human TRPV4; inhibition of agonist (EC80)-induced activation; read-out: Human TRPV4 FLIPR pIC50 (converted). The method, then: TRP channel activation/opening results in an influx of divalent and monovalent cations including calcium. The resulting changes in intracellular calcium are monitored using a calcium selective fluorescent dye Fluo4 (MDS Analytical Technologies). Dye loaded cells were initially exposed to test compound to verify a lack of agonist activity. Cells were subsequently activated by addition of an agonist and inhibition of the agonist-induced activation was recorded. Human embryonic kidney 293 cells stably expressing the macrophage scavenger receptor class II (HEK-293-MSR-II) and transduced with 1% BacMam (J. P. Condreay, S. M. Witherspoon, W. C. Clay and T. A. Kost, Proc Natl Acad Sci 96 (1999), pp. 127-132) virus expressing the human TRPV4 gene were plated at 15000 cells/well in a volume of 50 uL in a 384 well poly-D lysine coated plate. Cells were incubated for 24 hours at 37 degrees and 5% CO2. Media was then aspirated using a Tecan Plate-washer and replaced with 20 uL of dye loading buffer: HBSS, 500 uM Brilliant Black (MDS Analytical Technologies), 2 uM Fluo-4. Dye loaded plates were then incubated in the dark at room temperature for 1-1.5 hours. 10 uL of test compound diluted in HBSS+0.01% Chaps was added to the plate, incubated for 10 min at room temperature in the dark and then 10 uL of agonist was added at a final conc. equal to the agonist EC80. Calcium release was measured using the FLIPRtetra (MDS Analytical Technologies).

T1 sequence (Q9HBA0 whole entry): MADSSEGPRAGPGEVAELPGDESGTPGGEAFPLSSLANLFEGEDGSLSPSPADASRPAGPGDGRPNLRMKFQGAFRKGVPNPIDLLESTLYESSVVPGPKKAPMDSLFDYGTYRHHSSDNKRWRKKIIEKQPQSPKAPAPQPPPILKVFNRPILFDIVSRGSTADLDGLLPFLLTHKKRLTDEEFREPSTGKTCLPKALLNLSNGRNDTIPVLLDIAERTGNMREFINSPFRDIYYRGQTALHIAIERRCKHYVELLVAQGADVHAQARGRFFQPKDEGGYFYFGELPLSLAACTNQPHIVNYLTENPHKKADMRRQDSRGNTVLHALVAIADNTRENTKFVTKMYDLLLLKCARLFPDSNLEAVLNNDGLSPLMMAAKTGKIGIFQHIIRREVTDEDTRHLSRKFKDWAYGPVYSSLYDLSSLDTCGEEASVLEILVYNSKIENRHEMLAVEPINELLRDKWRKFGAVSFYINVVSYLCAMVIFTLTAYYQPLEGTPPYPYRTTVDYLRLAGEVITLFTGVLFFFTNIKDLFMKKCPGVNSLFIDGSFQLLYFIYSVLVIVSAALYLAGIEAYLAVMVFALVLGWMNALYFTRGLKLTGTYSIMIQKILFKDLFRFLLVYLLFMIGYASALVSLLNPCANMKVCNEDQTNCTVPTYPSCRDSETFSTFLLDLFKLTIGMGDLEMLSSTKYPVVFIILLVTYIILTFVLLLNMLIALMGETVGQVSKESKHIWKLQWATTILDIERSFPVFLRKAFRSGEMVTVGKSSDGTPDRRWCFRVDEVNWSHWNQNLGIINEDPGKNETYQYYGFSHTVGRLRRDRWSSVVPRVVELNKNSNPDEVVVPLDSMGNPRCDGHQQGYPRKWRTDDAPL

As for `CCS(=O)(=O)c1cc2c(C(=O)N[C@H](c3ccccc3)C(F)(F)F)c(CN3CCC(N4CCCCC4)CC3)c(-c3cccc(C(F)(F)F)c3)nc2cc1OC` [Example 3, 3-(1,4′-bipiperidin-1′-ylmethyl)-6-(ethylsulfonyl)-7-(methyloxy)-2-[3-(trifluoromethyl)phenyl]-N-[(1R)-2,2,2-trifluoro-1-phenylethyl]-4-quinolinecarboxamide], the IC50 is 6.31 nM.
The result for `CS(=O)(=O)c1ccc2nc(-c3cccc(C(F)(F)F)c3)c(CN3CCC(N4CCCCC4)CC3)c(C(=O)N[C@H](c3ccccc3)C(F)(F)F)c2c1` [Example 1, 3-(1,4′-bipiperidin-1′-ylmethyl)-6-(methylsulfonyl)-2-[3-(trifluoromethyl)phenyl]-N-[(1R)-2,2,2-trifluoro-1-phenylethyl]-4-quinolinecarboxamide] reads 3.16 nM; that for `CC1CN(Cc2c(-c3cccc(C(F)(F)F)c3)nc3ccc(S(=O)(=O)C(C)C)cc3c2C(=O)N[C@H](c2ccccc2)C(F)(F)F)CCC1N1CCOCC1` (mixture of isomers) [Example 38, 6-[(1-methylethyl)sulfonyl]-3-{[3-methyl-4-(4-morpholinyl)-1-piperidinyl]methyl}-2-[3-(trifluoromethyl)phenyl]-N-[(1R)-2,2,2-trifluoro-1-phenylethyl]-4-quinolinecarboxamide], 10 nM.
Consider `COc1cc2nc(-c3cccc(C(F)(F)F)c3)c(CN3CCC(N4CCCCC4)CC3)c(C(=O)N[C@H](c3ccccc3)C(F)(F)F)c2cc1S(=O)(=O)C(C)C` [Example 21, 3-(1,4′-bipiperidin-1′-ylmethyl)-6-[(1-methylethyl)sulfonyl]-7-(methyloxy)-2-[3-(trifluoromethyl)phenyl]-N-[(1R)-2,2,2-trifluoro-1-phenylethyl]-4-quinolinecarboxamide], for which the IC50 is 3.98 nM.
The result for `CCOc1cc2nc(-c3cccc(C(F)(F)F)c3)c(CN3CCC(N4CCOCC4)CC3)c(C(=O)N[C@H](c3ccccc3)C(F)(F)F)c2cc1S(=O)(=O)C(C)C` [Example 23, 7-(ethyloxy)-6-[(1-methylethyl)sulfonyl]-3-{[4-(4-morpholinyl)-1-piperidinyl]methyl}-2-[3-(trifluoromethyl)phenyl]-N-[(1R)-2,2,2-trifluoro-1-phenylethyl]-4-quinolinecarboxamide] reads 6.31 nM; that for `CC(C)Oc1cc2nc(-c3cccc(C(F)(F)F)c3)c(CN3CCC(N4CCOCC4)CC3)c(C(=O)N[C@H](c3ccccc3)C(F)(F)F)c2cc1S(C)(=O)=O` [Example 20, 7-[(1-methylethyl)oxy]-6-(methylsulfonyl)-3-{[4-(4-morpholinyl)-1-piperidinyl]methyl}-2-[3-(trifluoromethyl)phenyl]-N-[(1R)-2,2,2-trifluoro-1-phenylethyl]-4-quinolinecarboxamide], 6.31 nM.
The result for `CCOc1cc2nc(-c3cccc(C(F)(F)F)c3)c(CN3CCC(N4CCOCC4)CC3)c(C(=O)N[C@H](c3ccccc3)C(F)(F)F)c2cc1S(=O)(=O)CC` [Example 26, 7-(ethyloxy)-6-(ethylsulfonyl)-3-{[4-(4-morpholinyl)-1-piperidinyl]methyl}-2-[3-(trifluoromethyl)phenyl]-N-[(1R)-2,2,2-trifluoro-1-phenylethyl]-4-quinolinecarboxamide] reads 10 nM; that for `COc1cc2nc(-c3cccc(C(F)(F)F)c3)c(CN3CCC(N4CCOCC4)CC3)c(C(=O)N[C@H](c3ccccc3)C(F)(F)F)c2cc1S(=O)(=O)C(C)C` [Example 22, 6-[(1-methylethyl)sulfonyl]-7-(methyloxy)-3-{[4-(4-morpholinyl)-1-piperidinyl]methyl}-2-[3-(trifluoromethyl)phenyl]-N-[(1R)-2,2,2-trifluoro-1-phenylethyl]-4-quinolinecarboxamide], 6.31 nM.
